Key:
Botrytis cinerea = test: Activity against the gray mold pathogen Botrytis cinerea in the microtiter test; format: cell-based; conditions: 1 ppm; microtiter plate, 405 nm, day 7 after inoculation
Source text: For the microtiter tests, the active compounds were formulated separately as a stock solution having a concentration of 10 000 ppm in DMSO.
In the microtiter tests, the measured parameters were offset with the growth of the active-compound-free control variant and the fungus- and active-compound-free blank value, in order to determine the relative growth in % of the pathogens in the individual active compounds.
The stock solutions were mixed according to the ratio, pipetted into a microtiter plate (MTP) and diluted to the stated active compound concentration using a malt-based aqueous nutrient medium for fungi. An aqueous spore suspension of Botrytis cinerea was then added. The plates were placed in a water vapor-saturated chamber at temperatures of 18° C. Using an absorption photometer, the MTPs were measured at 405 nm on day 7 after the inoculation.

Alternaria solani = test: Activity against early blight of tomato caused by Alternaria solani; format: in vivo, Alternaria solani on tomato; conditions: 4 ppm; tomato cultivar Goldene Königin, sprayed 1 day before infection, rated after 5 days
Description: (§1) The active compounds were separately or jointly prepared as a stock solution comprising 25 mg of active compound which was made up to 10 ml using a mixture of acetone and/or DMSO and the emulsifier Uniperol® EL (wetting agent having emulsifying and dispersing action based on ethoxylated alkylphenols) in a volume ratio of solvent/emulsifier of 99 to 1. The mixture was then made up with water to 100 ml. This stock solution was diluted with the solvent/emulsifier/water mixture described to the concentration of active compounds stated below.
(§2) The visually determined percentages of infected leaf areas were converted into efficacies in % of the untreated control:
The efficacy (E) is calculated as follows using Abbot's formula: E=(1−α/β)·100 α corresponds to the fungicidal infection of the treated plants in % and β corresponds to the fungicidal infection of the untreated (control) plants in % […]
Leaves of potted plants of the cultivar “Goldene Königin” were sprayed to runoff point with an aqueous suspension having the concentration of active compound stated below. […] After 5 days, the disease on the untreated but infected control plants had developed to such an extent that the infection could be determined visually in %.

Pyrenophora teres = test: Activity against net blotch of barley caused by Pyrenophora teres, protective application; format: in vivo, Pyrenophora [syn. Drechslera] teres on barley; conditions: barley seedlings, rated after 6 days
Description: as §1, §2
The efficacy (E) is calculated as follows using Abbot's formula: E=(1−α/β)·100 α corresponds to the fungicidal infection of the treated plants in % and β corresponds to the fungicidal infection of the untreated (control) plants in %
An efficacy of 0 means that the infection level of the treated plants corresponds to that of the untreated control plants; an efficacy of 100 means that the treated plants were not infected.
Leaves of potted barley seedlings were sprayed to runoff point with an aqueous suspension having the concentration of active compound stated below. After 5 days, the test plants were inoculated with an aqueous spore suspension of Pyrenophora [syn. Drechslera] teres, the net blotch pathogen. The test plants were then placed in a greenhouse at temperatures between 20 and 24° C. and 95 to 100% relative atmospheric humidity. After 6 days, the extent of the disease development was determined visually in % infection of the entire leaf area.

Compound | Observed activity (%) (Botrytis cinerea) | Observed activity (%) (Alternaria solani) | Observed activity (%) (Pyrenophora teres; 16 ppm, protective) | Observed activity (%) (Pyrenophora teres; 250 ppm, protective) | Observed activity (%) (Pyrenophora teres; 63 ppm, sprayed 5 days before inoculation)
zinc ammoniate ethylenebis(dithiocarbamate) [metiram (II-4)] | 7 |  |  |  | 
Cc1ccc(C(C)NC(=O)[C@@H](NC(=O)OC(C)C)C(C)C)cc1 (stereo partly drawn) [iprovalicarb (II-11), isopropyl [(1S)-2-methyl-1-(1-p-tolylethylcarbamoyl)propyl]carbamate] |  | 0 |  |  | 
manganese ethylenebis(dithiocarbamate) (polymer) complex zinc salt [mancozeb (II-1)] |  |  | 0 | 22 | 
CO/C=C(/C(=O)OC)c1ccccc1CO/N=C(C)/C=C/c1ccc(Cl)cc1 [enestroburin (I), methyl 2-{2-[3-(4-chlorophenyl)-1-methylallylideneaminooxymethyl]phenyl}-3-methoxyacrylate] | 12 | 22 |  |  | 56

From patent US20080076747A1, “Fungicidal Mixtures” (BASF AKTIENGESELLSCHAFT, priority 2004, published 2008)
